# Assay results taken from patent US11944628B2, “Methods for the use of low-dose immune modulators transiently for treating patients undergoing protein replacement therapy” (Duke University, priority 2017, dated 2024).
# Several values for one entry are separate records, joined by “and”; a condition that tells them apart may be missing. Equal entries are not always repeated. Entries after “also recorded” stand apart in the source; their conditions may differ. Where two headings read alike, the source gives them in different places. Marks after values point to notes of the source that are not given here.
# Tests used:
# [1] = tested on: anti-rhGAA IgG antibodies; conditions: LOTS, cited from earlier work
# [2] = tested on: anti-rhGAA IgG antibodies; conditions: 10 LOPD patients, 4 years, annual titers; cited from earlier work
# [3] = tested on: anti-rhGAA IgG antibodies; assay: Anti-rhGAA IgG antibody titers over time (ELISA, confirmed by radioimmunoprecipitation) in Pompe disease patients on ERT with TLD-MTX or on ERT monotherapy (comparators); assay type: in vivo, human; conditions: for Percent of patients in HSAT group: HSAT: titers >=51,200 on >=2 occasions at or beyond 6 months on ERT; for Percent of patients who developed HSAT or SIT: comparator group n=37, TLD-MTX group n=14; for Percent of patients in SIT group: SIT: titers >=12,800 and <51,200 within first year of ERT; for Overall immune tolerance outcome versus historical data: cohort conclusion in words; for Development of HSAT: methotrexate recipients: Example 2 (n=17), Example 3 (n=14, by data cutoff Jun. 16, 2017)
# Procedure: Methotrexate at 0.4 mg/kg body weight was administered subcutaneously (or orally if subcutaneous administration was not possible) on three consecutive days/MTX cycle/infusion; with the first three ERT infusions (i.e., on Days 0, 14, and 28 for patients infused EOW) for a total of 3 cycles. On the day of ERT infusion, methotrexate was administered 15 minutes (if subcutaneous) or 1 hour (if oral) before infusion initiation and again on the following 2 days. To exemplify the schedule, in a patient receiving ERT infusion EOW, methotrexate was administered on Days 0, 1, and 2 (first cycle); Days 14, 15, and 16 (second cycle), and Days 28, 29, and 30 (third cycle). As stated earlier, the dose and frequency of ERT could be increased at the discretion of the treating physician, based on patients' clinical and IAR status, in which case methotrexate cycles were adjusted accordingly (see FIG. 2 for details).
# Anti-rhGAA IgG antibodies were determined by Sanofi Genzyme (Framingham, MA, USA) using enzyme-linked immunosorbent assays and confirmed using radioimmunoprecipitation as described previously (Kishnani et al. (2006) J. Pediatr. 149:89-97). Antibody analyses were recommended to be performed at Days −1, 28, 56, 84, 112, 140, 168, 196, 224, 252, 280, 308, 336, and 364.
# rhGAA IgG titers were determined over time. Patients were classified into HSAT (≥51,200 on ≥2 occasions at or beyond 6 months on ERT), sustained intermediate titer (SIT) (≥12,800 and <51,200 within the first year of ERT), and low titer (LT; ≤6,400 within the first year of ERT) groups based on the longitudinal anti-rhGAA IgG titers. […] Medians and ranges were determined for baseline, peak, and last titers, although our focus was on longitudinal titers through time because sustained titers affect clinical response.
# The comparators received rhGAA alone. The GAA variant data and age at ERT initiation were compared with our cohort of TLD-MTX recipients. Immune responses over time were classified into HSAT, SIT, and LT as defined above, and time to seroconversion, peak titers, titers at Weeks 12, 24, and 52 were compared with our present cohort of TLD-MTX recipients.
# [4] = tested on: anti-rhGAA IgG antibodies; conditions: cited from earlier work
# [5] = Safety: hematologic and biochemical analyses (ANC, AST, ALT), adverse events and infections in methotrexate recipients; assay type: in vivo, human; conditions: for Neutropenia (ANC <750 cells/mm^3), percent of patients: transient; for ALT > 3x baseline (Yes/No) / ANC < 750 cells/mm^3 (Yes/No) / AST > 3x baseline (Yes/No): first 6 weeks on alglucosidase alfa
# Procedure: On Days −1 (baseline), 13, 28, 42, 56, 84, 168, 252, 336, and 364, blood samples were recommended to be collected for hematologic and biochemical analyses for patients receiving ERT EOW. The sampling schedule was modified for patients receiving ERT weekly (FIG. 2). Complete and differential blood counts and platelets were evaluated and monitored for platelet counts <50,000/mm^3, ANC <750/mm^3, and treatment-resistant infections. Biochemical analyses monitored alanine aminotransferase (ALT), aspartate aminotransferase (AST), creatine kinase (CK), and CK-MB levels. Post-treatment increases in AST and ALT levels were noted if exceeding three times their respective baseline levels.
# anti-rhGAA IgG response = conditions: methotrexate alone, transient low dose co-initiated with ERT, Joseph et al. (2008); cited from earlier work
# [6] = LT group, IOPD, seropositive titers <100 deemed 50
# [7] = individual atypical IOPD patients
# [8] = individual SIT patients IOPD13 and IOPD14 (patient named in the cell), listed as TLD-MTX
molecule,measurement,setting,value
Alglucosidase alfa [ERT monotherapy],"Geometric mean titer, maximum","[1]; LOPD, Week 44","2,925"
same,"Geometric mean titer, last","[1]; LOPD, Week 78","1,607"
same,Median last titer,"[1]; LOPD, Week 78","1,600"
same,Median peak titer,"[1]; LOPD, median time 12 weeks of alglucosidase alfa therapy","6,400"
same,Peak IgG titer quartile,[1]; first quartile (n=17),"200-1,600"
same,Peak IgG titer quartile,[1]; fourth quartile (n=14),"25,600-819,200"
same,Peak IgG titer quartile,[1]; second quartile (n=12),"3,200"
same,Peak IgG titer quartile,[1]; third quartile (n=16),"6,400-12,800"
same,Highest antibody titer of any patient,[2],"≤ 25,600"
same,Range of peak titers,[3]; HSAT comparators (5/37),"51,200-409,600"
same,Group median last titer,"[3]; HSAT group of 37 CRIM-positive IOPD comparators, median time on ERT Week 94","102,400"
same,Median peak titers,"[3]; HSAT group, IOPD","204,800 (range, 51,200-409,600)"
same,Median titers (Week 12),"[3]; HSAT group, IOPD","25,600"
same,Median titers (Week 24),"[3]; HSAT group, IOPD","25,600"
same,Median titers (Week 52),"[3]; HSAT group, IOPD","51,200"
same,Seroconversion week (median time to seroconversion),"[3]; HSAT group, IOPD",≤ 4 weeks
same,Percent of patients in HSAT group,[3]; IOPD,13.5%
same,Percent of patients who developed HSAT or SIT,[3]; IOPD,32.4%
same,Range of peak titers,[3]; LT comparators (23/37 as printed),"200-12,800"
same,Group median last titer,"[3]; LT group of 37 CRIM-positive IOPD comparators, median time on ERT Week 130",400
same,Median peak titers,"[3]; LT group, IOPD","800 (range, 200-12,800)"
same,Median titers (Week 12),"[3]; LT group, IOPD",400
same,Median titers (Week 24),"[3]; LT group, IOPD",400
same,Seroconversion week (median time to seroconversion),"[3]; LT group, IOPD",8 weeks
same,Median titers (Week 52),[3]; [6],200
same,Percent of patients in LT group,"[3]; LT: titers <=6,400 within first year of ERT, IOPD",67.6%
same,Range of peak titers,[3]; SIT (IT) comparators (7/37),"12,800-51,000"
same,Group median last titer,"[3]; SIT group of 37 CRIM-positive IOPD comparators, median time on ERT Week 104","1,600"
same,Median peak titers,"[3]; SIT group, IOPD","25,600 (range, 12,800-51,200)"
same,Median titers (Week 12),"[3]; SIT group, IOPD","12,800"
same,Median titers (Week 24),"[3]; SIT group, IOPD","12,800"
same,Median titers (Week 52),"[3]; SIT group, IOPD","3,200"
same,Seroconversion week (median time to seroconversion),"[3]; SIT group, IOPD",4 weeks
same,Percent of patients in SIT group,[3]; IOPD,18.9%
same,Percent of patients with high antibody titers,"[4]; CRIM-positive IOPD, 9 of 23, Banugaria et al. (2011)",39%
same,Percent of patients developing HSAT,[4]; CRIM-positive patients with IOPD,~40%
same,Percent of patients developing HSAT,[4]; patients with LOPD,10%
CN(Cc1cnc2nc(N)nc(N)c2n1)c1ccc(C(=O)N[C@@H](CCC(=O)O)C(=O)O)cc1 [methotrexate],"Neutropenia (ANC <750 cells/mm^3), percent of patients",[5]; 2 of 9 IOPD patients with ANC data (Example 2),22%
same,"Neutropenia (ANC <750 cells/mm^3), percent of patients",[5]; 2 of 13 IOPD patients with ANC data (Example 3),15.4%
same,ALT > 3x baseline (Yes/No),[5]; individual IOPD patients,Yes (3×) and No (5×)
same,ANC < 750 cells/mm^3 (Yes/No),[5]; individual IOPD patients,Yes (2×) and No (7×)
same,AST > 3x baseline (Yes/No),[5]; individual IOPD patients,No (7×) and Yes
same,ALT > 3x baseline (Yes/No),[5]; individual LOPD patients,No
same,ANC < 750 cells/mm^3 (Yes/No),[5]; individual LOPD patients,No
same,AST > 3x baseline (Yes/No),[5]; individual LOPD patients,No
same,ALT > 3x baseline (Yes/No),[5]; [7],No
same,ANC < 750 cells/mm^3 (Yes/No),[5]; [7],No
same,AST > 3x baseline (Yes/No),[5]; [7],No
same,Overall tolerability,[5]; methotrexate recipients,tolerated the methotrexate protocol reasonably
same,Serious AEs related to methotrexate,[5]; methotrexate recipients,No serious AEs were related to methotrexate
same,Patients with hospitalizations related to infections around the time of methotrexate administration,"[5]; patients with infection data available (Example 3), resolved",Two of nine
same,Effect on anti-rhGAA IgG response,anti-rhGAA IgG response,sustainably reduced anti-rhGAA IgG response
same,Median last titer,"[3]; 17 CRIM-positive IOPD, atypical IOPD and LOPD methotrexate recipients (Example 2), median ~68 weeks on alglucosidase alfa","100 (range, 0-6400) and 100 (range 0-6400)"
same,Patients remaining seronegative,[3]; Example 2 cohort of 17 patients,1 of 17
same,Highest observed titer in the study,"[3]; Example 2 cohort, IOPD patient (Patient 3) given one methotrexate dose each in cycles 2 and 3","12,800"
same,Percent of patients in HSAT group,[3]; IOPD,0%
same,Titer,"[3]; IOPD Patient 3, Week 49",400
same,Titer,"[3]; IOPD Patient 3, by Week 20",3200
same,Percent of patients who developed HSAT or SIT,[3]; IOPD,14.2%
same,Median peak titers,"[3]; LT group, IOPD","3,200"
same,Median titers (Week 12),"[3]; LT group, IOPD","1,600"
same,Median titers (Week 24),"[3]; LT group, IOPD",600
same,Median titers (Week 52),[3]; [6],250***
same,Percent of patients in SIT group,[3]; IOPD,14.2% (n = 2)
same,Overall immune tolerance outcome versus historical data,[3]; listed as TLD-MTX,successfully blunted the immune response overall
same,Overall immune tolerance outcome versus historical data,[3]; listed as low-dose methotrexate,successfully induced immune tolerance
same,Peak antibody titer since immune tolerance induction,"[3]; individual IOPD patients (one line per patient), >6 months follow-up, methotrexate 0.4 mg/kg, 3 cycles, with alglucosidase alfa","3,200 (3×) and <100 and 200 and 800 (3×) and 6,400"
same,Peak antibody titer since immune tolerance induction,"[3]; individual IOPD patients (one line per patient), >6 months follow-up, methotrexate 0.4 mg/kg, 3 cycles, with alglucosidase alfa, single methotrexate dose in cycles 2 and 3","12,800*"
same,Last antibody titer,"[3]; individual IOPD patients (one line per patient), last titer at 42-122 weeks on ERT","0 (4×) and 400 and <100 and 100 (2×) and 6,400"
same,Last antibody titer,"[3]; individual IOPD patients (one line per patient), last titer at 42-122 weeks on ERT, single methotrexate dose in cycles 2 and 3",400
same,Peak antibody titer,"[3]; individual IOPD patients IOPD1-IOPD14 (one line per patient) on TLD-MTX protocol, >6 months follow-up","12,800* and 3,200 (4×) and 200 (2×) and 800 (3×) and 6,400 and 51,200** and 25,600*** and <100"
same,Last antibody titer,"[3]; individual IOPD patients IOPD1-IOPD14 on TLD-MTX protocol, last titer at 32-122 weeks on ERT","400 (3×) and 0 (4×) and <100 and 100 (2×) and 6,400 and 200 and 12,800 and 12.800"
same,Peak antibody titer since immune tolerance induction,"[3]; individual LOPD patients (one line per patient), >6 months follow-up","1,600 and 800"
same,Last antibody titer,"[3]; individual LOPD patients, last titer at 63 and 27 weeks on ERT",0 and 400
same,Titer (Week 52),[3]; individual SIT patient IOPD13,"IOPD13: 12,800"
same,Peak titer,[3]; [8],"IOPD13: 51,200;; also recorded: IOPD14: 12,800"
same,Titer (Week 12),[3]; [8],"IOPD13: 12,800;; also recorded: IOPD14: 25,600"
same,Titer (Week 24),[3]; [8],"IOPD13: 12,800;; also recorded: IOPD14: 12,800"
same,Peak antibody titer since immune tolerance induction,"[3]; individual atypical IOPD patients (one line per patient), >6 months follow-up","3,200 and Never and <100 and 800 and 200"
same,Last antibody titer,"[3]; individual atypical IOPD patients, last titer at 58-145 weeks on ERT",400 and 0 and <100 and 200 (2×)
same,"Peak antibody titer, median",[3]; median of 14 IOPD patients on TLD-MTX protocol,"3,200"
same,"Last antibody titer, median","[3]; median of 14 IOPD patients on TLD-MTX protocol, median time on ERT ~71 weeks","150 (range, 0-12,800)"
same,Development of HSAT,[3],No patients who received methotrexate developed HSAT; also recorded: No methotrexate recipients developed HSAT
same,Development of HSAT,[3]; listed as TLD-MTX,No patients who received TLD-MTX developed HSAT
same,Maximal titer,"[3]; one methotrexate-treated LOPD patient, Weeks 16 and 20","1,600"
same,"Titers remaining (seropositive on screening assay, below limit of titer measurement)",[3]; patient IOPD2,< 100
same,Titer,"[3]; patient IOPD13, Week 7 only","51,200"
same,Peak titer after the cutoff date (HSAT developed),"[3]; patient IOPD13, Week 76","102,400"
same,Titer,"[3]; patient IOPD13, Weeks 12 and 37","25,600"
same,Titer,"[3]; patient IOPD13, Weeks 14, 17, 23, 31 and 44","12,800"
same,Titer,"[3]; patient IOPD14, Week 28 only","25,600"
same,Last titer after the cutoff for data collection,"[3]; patient IOPD14, Week 36","6,400"
same,Titer,"[3]; patient IOPD14, Weeks 12, 16, 24 and 32","12,800"
same,Titer,"[3]; same LOPD patient, Week 63",0
same,Titer,"[3]; same LOPD patient, Weeks 32-55",100
same,Titer,"[3]; the other LOPD patient, Week 27",400
same,Maximal titer,"[3]; the other methotrexate-treated LOPD patient, Weeks 9-16",800
